One experiment concerns the target T1, human MR (Homo sapiens, UniProt P08235).
T1 construct: The full length human MR gene is cloned from a human kidney or human brain cDNA library; inferred from own knowledge of the pAcHLT vector (N); made in house; host or cells: Sf9 insect cells (baculovirus)
T1 sequence (P08235 1-984): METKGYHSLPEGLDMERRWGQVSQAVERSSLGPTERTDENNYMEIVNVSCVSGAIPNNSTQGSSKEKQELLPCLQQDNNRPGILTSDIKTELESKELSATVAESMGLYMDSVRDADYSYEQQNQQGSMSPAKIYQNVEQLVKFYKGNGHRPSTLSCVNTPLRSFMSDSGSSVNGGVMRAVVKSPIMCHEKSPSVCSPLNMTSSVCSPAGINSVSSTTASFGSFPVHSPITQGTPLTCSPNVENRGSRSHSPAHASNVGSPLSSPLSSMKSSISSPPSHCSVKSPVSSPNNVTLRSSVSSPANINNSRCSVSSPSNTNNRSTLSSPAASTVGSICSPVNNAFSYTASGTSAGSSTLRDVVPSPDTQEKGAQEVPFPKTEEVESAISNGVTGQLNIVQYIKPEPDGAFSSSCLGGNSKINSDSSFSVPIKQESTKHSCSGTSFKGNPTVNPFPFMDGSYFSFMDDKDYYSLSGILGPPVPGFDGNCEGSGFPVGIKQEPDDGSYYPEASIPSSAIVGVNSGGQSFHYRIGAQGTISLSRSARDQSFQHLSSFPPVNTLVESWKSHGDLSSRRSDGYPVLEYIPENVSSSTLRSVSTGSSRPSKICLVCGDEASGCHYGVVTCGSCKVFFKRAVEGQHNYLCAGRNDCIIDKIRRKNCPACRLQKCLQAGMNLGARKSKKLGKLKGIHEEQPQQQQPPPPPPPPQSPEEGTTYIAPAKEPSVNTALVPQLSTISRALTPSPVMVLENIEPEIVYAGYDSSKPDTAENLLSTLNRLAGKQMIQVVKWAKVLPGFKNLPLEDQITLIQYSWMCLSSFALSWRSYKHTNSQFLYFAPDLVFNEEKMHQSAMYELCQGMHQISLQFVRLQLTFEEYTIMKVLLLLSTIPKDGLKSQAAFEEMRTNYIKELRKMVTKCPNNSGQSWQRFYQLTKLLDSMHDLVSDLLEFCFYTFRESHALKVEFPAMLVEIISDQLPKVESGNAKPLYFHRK
Description: Mineralocorticoid Receptor Binding Assay (Method 1), [3H]-aldosterone competition. As to conditions: 0.5 nM [3H]-aldosterone, human MR expressed in Sf9 cells. A digest of the protocol:
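Full-length human MR expressed in Sf9 cells via baculovirus; lysate supernatant (about 20-25 μg protein) incubated with 0.5 nM [3H]-aldosterone and test compound for about 16 h at 4° C. Buffer was Tris/molybdate/phosphate/pyrophosphate with 10% glycerol, pH 7.5; filter-bound complex counted by scintillation.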

Another experiment has as its target T2, glucocorticoid receptor (Homo sapiens, UniProt P04150).
T2 construct: containing 50-200 ug of A549 cell extract and 1.86 nM; host or cells: A549 human lung epithelial cells
T2 sequence (P04150 1-777): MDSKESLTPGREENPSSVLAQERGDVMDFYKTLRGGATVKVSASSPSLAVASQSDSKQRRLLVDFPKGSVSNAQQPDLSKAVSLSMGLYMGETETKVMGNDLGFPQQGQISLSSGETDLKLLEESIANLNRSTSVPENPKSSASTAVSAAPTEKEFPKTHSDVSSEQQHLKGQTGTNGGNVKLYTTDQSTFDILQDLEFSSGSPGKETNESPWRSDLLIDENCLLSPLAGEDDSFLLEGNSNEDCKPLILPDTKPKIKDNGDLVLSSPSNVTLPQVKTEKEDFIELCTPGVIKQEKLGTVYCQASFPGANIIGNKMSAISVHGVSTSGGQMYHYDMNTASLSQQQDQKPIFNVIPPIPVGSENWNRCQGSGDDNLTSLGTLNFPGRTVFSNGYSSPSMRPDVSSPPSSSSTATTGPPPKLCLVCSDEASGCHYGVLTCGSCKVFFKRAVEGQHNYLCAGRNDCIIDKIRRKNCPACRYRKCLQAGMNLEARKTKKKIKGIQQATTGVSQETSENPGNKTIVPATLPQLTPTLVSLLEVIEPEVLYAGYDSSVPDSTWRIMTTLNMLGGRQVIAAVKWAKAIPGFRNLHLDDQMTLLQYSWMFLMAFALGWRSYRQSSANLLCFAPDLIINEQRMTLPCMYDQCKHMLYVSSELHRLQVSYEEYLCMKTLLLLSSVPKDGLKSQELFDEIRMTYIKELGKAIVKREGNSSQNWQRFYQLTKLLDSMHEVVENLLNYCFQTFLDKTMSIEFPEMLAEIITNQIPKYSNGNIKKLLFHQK
The experiment can be described thus: Glucocorticoid Receptor Binding Assay (Method 1), [3H]-dexamethasone competition, A549 cell extract. Conditions: 1.86 nM [3H]-dexamethasone, read-out: GR Ki (nM) Method 1. A digest of the protocol: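 Receptor source: sonicated extract of human A549 lung epithelial cells in glycerol/Tris-HCl pH 7.2 buffer with sodium molybdate. [3H]-dexamethasone competition run 16 h at 4 °C; unbound radioligand stripped with dextran-coated charcoal (8 min, RT) and receptor-bound radioactivity quantified by scintillation counting.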

Structures are written as SMILES.

As to `Cc1cccc2c(C(C)(c3ccc(F)cc3)C3CC3)c[nH]c12` (centres unmarked) [Example 40, 3-[1-Cyclopropyl-1-(4-fluoro-phenyl)-ethyl]-7-methyl-1H-indole], the Ki at human MR and on glucocorticoid receptor was less than 500 nM in each case.

For the compound `Cc1ccc(C(C)(C)c2c[nH]c3c(N)cccc23)cc1` [Example 41, 3-(1-Methyl-1-p-tolyl-ethyl)-1H-indol-7-ylamine], the Ki (commonly a measure of affinity in units of concentration, obtained from inhibition or displacement) on human MR was less than 1000 nM; at glucocorticoid receptor, less than 10000 nM.

With `CC(c1ccccc1)(c1ccccc1)c1cn(CC(=O)O)c2ccccc12` [Example 42, [3-(1,1-Diphenyl-ethyl)-indol-1-yl]-acetic acid], the inhibition constant Ki at human MR and at glucocorticoid receptor was less than 10000 nM each time.

For the compound `CCCC(C)(c1ccc(OC(F)(F)F)cc1)c1c[nH]c2c(NS(C)(=O)=O)cccc12` (centres unmarked) [Example 43], the values for the Ki on human MR and at glucocorticoid receptor were less than 500 nM and less than 1000 nM, respectively.

Consider `CCCC(C)(c1ccccc1OC)c1c[nH]c2c(NS(C)(=O)=O)cccc12` (centres unmarked) [Example 44, N-{3-[1-(2-Methoxy-phenyl)-1-methyl-butyl]-1H-indol-7-yl}-methanesulfonamide], for which the Ki at human MR and on glucocorticoid receptor was less than 500 nM throughout.

Regarding `CCCC(C)(c1ccc(OC)cc1)c1c[nH]c2c(NS(C)(=O)=O)cccc12` (centres unmarked) [Example 45, N-{3-[1-(4-Methoxy-phenyl)-1-methyl-butyl]-1H-indol-7-yl}-methanesulfonamide], the Ki at human MR and at glucocorticoid receptor was less than 500 nM throughout.

On to `CCCC(C)(c1cccc(OC)c1)c1c[nH]c2c(NS(C)(=O)=O)cccc12` (centres unmarked) [Example 46, N-{3-[1-(3-Methoxy-phenyl)-1-methyl-butyl]-1H-indol-7-yl}-methanesulfonamide], for which the Ki on human MR and on glucocorticoid receptor was less than 500 nM throughout.

On to `CC(C)(c1ccc2ncccc2c1)c1c[nH]c2c(NS(C)(=O)=O)cccc12` [Example 47, N-[3-(1-Methyl-1-quinolin-6-yl-ethyl)-1H-indol-7-yl]-methanesulfonamide], for which the Ki at human MR and at glucocorticoid receptor was less than 500 nM in each case.

On to `CCCC(C)(c1ccc(OC)cc1)c1c[nH]c2c(N)cccc12` (centres unmarked) [Example 50, 3-[1-(4-Methoxy-phenyl)-1-methyl-butyl]-1H-indol-7-ylamine], for which the inhibition constant (Ki) on human MR and at glucocorticoid receptor was less than 500 nM throughout.

Turning to `O=C(O)Cn1cc(C(c2ccccc2)(c2ccccc2)c2ccccc2)c2ccccc21` [Example 51, (3-Trityl-indol-1-yl)-acetic acid], the inhibitory constant (Ki) was less than 1000 nM at human MR and less than 10000 nM on glucocorticoid receptor.

`O=C(O)CCn1cc(C(c2ccccc2)(c2ccccc2)c2ccccc2)c2ccccc21` [Example 52, 3-(3-Trityl-indol-1-yl)-propionic acid]: the Ki on human MR and at glucocorticoid receptor was less than 10000 nM each time.

In the case of `CCC(CC)(c1ccc(C)cc1)c1c[nH]c2c(NS(C)(=O)=O)cccc12` [Example 54, N-[3-(1-Ethyl-1-p-tolyl-propyl)-1H-indol-7-yl]-methanesulfonamide], the inhibition constant (Ki) on human MR and at glucocorticoid receptor was less than 500 nM throughout.

On to `COc1ccc(C(C)(C)c2c[nH]c3c(NS(C)(=O)=O)cccc23)cc1` [Example 55, N-{3-[1-(4-Methoxy-phenyl)-1-methyl-ethyl]-1H-indol-7-yl}-methanesulfonamide], for which the Ki at human MR and on glucocorticoid receptor was less than 500 nM throughout.

`CCC(CC)(c1ccc(Cl)cc1)c1c[nH]c2c(NS(C)(=O)=O)cccc12` [Example 56, N-{3-[1-(4-Chloro-phenyl)-1-ethyl-propyl]-1H-indol-7-yl}-methanesulfonamide]: the Ki at human MR and on glucocorticoid receptor was less than 500 nM in each case.

`CCC(CC)(c1ccc(C)cc1F)c1c[nH]c2c(NS(C)(=O)=O)cccc12` [Example 57, N-{3-[1-Ethyl-1-(2-fluoro-4-methyl-phenyl)-propyl]-1H-indol-7-yl}-methanesulfonamide]: the Ki at human MR and at glucocorticoid receptor was less than 500 nM each time.

`CCC(CC)(c1ccc(C)c(C)c1)c1c[nH]c2c(NS(C)(=O)=O)cccc12` [Example 58, N-{3-[1-(3,4-Dimethyl-phenyl)-1-ethyl-propyl]-1H-indol-7-yl}-methanesulfonamide]: the Ki at human MR and at glucocorticoid receptor was less than 500 nM throughout.

On to `CCC(CC)(c1ccc(C)cc1C)c1c[nH]c2c(NS(C)(=O)=O)cccc12` [Example 60, N-{3-[1-(2,4-Dimethyl-phenyl)-1-ethyl-propyl]-1H-indol-7-yl}-methanesulfonamide], for which the Ki at human MR and on glucocorticoid receptor was less than 500 nM in each case.

`CCC(CC)(c1ccccc1)c1c[nH]c2c(NS(C)(=O)=O)cccc12` [Example 61, N-[3-(1-Ethyl-1-phenyl-propyl)-1H-indol-7-yl]-methanesulfonamide]: the Ki at human MR and at glucocorticoid receptor was less than 500 nM in each case.

`CCC(CC)(c1ccc(C(F)(F)F)cc1)c1c[nH]c2c(NS(C)(=O)=O)cccc12` [Example 63, N-{3-[1-Ethyl-1-(4-trifluoromethyl-phenyl)-propyl]-1H-indol-7-yl}-methanesulfonamide]: the Ki on human MR and at glucocorticoid receptor was less than 500 nM in each case.

`CCC(CC)(c1ccc(F)c(F)c1)c1c[nH]c2c(NS(C)(=O)=O)cccc12` [Example 64, N-{3-[1-(3,4-Difluoro-phenyl)-1-ethyl-propyl]-1H-indol-7-yl}-methanesulfonamide]: the Ki on human MR and at glucocorticoid receptor was less than 500 nM in each case.

In the case of `CCC(C)(c1ccc(C)cc1)c1c[nH]c2c(NS(C)(=O)=O)cccc12` (centres unmarked) [Example 65, N-[3-(1-Methyl-1-p-tolyl-propyl)-1H-indol-7-yl]-methanesulfonamide], the Ki on human MR and on glucocorticoid receptor was less than 500 nM in each case.

Take `CCc1ccc(C(CC)(CC)c2c[nH]c3c(NS(C)(=O)=O)cccc23)cc1` [Example 66, N-{3-[1-Ethyl-1-(4-ethyl-phenyl)-propyl]-1H-indol-7-yl}-methanesulfonamide]: the Ki at human MR and at glucocorticoid receptor was less than 500 nM in each case.

In the case of `CCC(CC)(c1ccccc1C)c1c[nH]c2c(NS(C)(=O)=O)cccc12` [Example 67, N-[3-(1-Ethyl-1-o-tolyl-propyl)-1H-indol-7-yl]-methanesulfonamide], the Ki on human MR and on glucocorticoid receptor was less than 500 nM in each case.

As to `CCC(CC)(c1ccccc1F)c1c[nH]c2c(NS(C)(=O)=O)cccc12` [Example 68, N-{3-[1-Ethyl-1-(2-fluoro-phenyl)-propyl]-1H-indol-7-yl}-methanesulfonamide], the Ki on human MR and on glucocorticoid receptor was less than 500 nM each time.

Regarding `CCCC(CCC)(c1ccc(OC)cc1)c1c[nH]c2c(NS(C)(=O)=O)cccc12` [Example 69, N-{3-[1-(4-Methoxy-phenyl)-1-propyl-butyl]-1H-indol-7-yl}-methanesulfonamide], the Ki at human MR and at glucocorticoid receptor was less than 500 nM each time.

(Values after patent publication US20060235222A1, “Indole-derivative modulators of steroid hormone nuclear receptors” (ELI LILLY AND COMPANY, priority 2003, published 2006).)
